Values after ≈ are worked out from the molar mass of the structure shown. Like-named read-outs stand apart in the source and are kept apart here.
What was measured:
Assay in all cases: microbe, parasite or virus in culture
[1] = tested on: T1, S. cerevisiae wild-type CVX12-3A; design: species or system whole yeast cells; micro-culture broth dilution MIC in YES at 30 C, turbidity, complete growth inhibition; details: Saccharomyces cerevisiae, read-out: MIC
T1 construct: CVX12-3A
Procedure: (§1) Standard YEPD (Yeast Extract, Peptone, Dextrose) ([Sherman, 1990]), YEPD+S (YEPD with 1.2M sorbitol), YES (Yeast Extract, Dextrose and Supplements of Adenine, Histidine, Leucine, Uracil and Lysine) ([Alfa et al., 1993]) and YES+S (YES with 1.2 M sorbitol) ([Ribas et al., 1991]; [Ishiguro et al., 1997]), media were used for determination of MIC values of the tested compounds. A stock solution of 10 mg/ml of each tested compounds was prepared in DMSO and serial dilutions in DMSO were prepared. The final concentration of DMSO was 2% in the YEPD medium. […] The serial dilutions of compounds were dispensed into test tubes with 1 ml of YEPD or YEPD+S to make final concentrations of 200, 100, 50, 25, 12.5, 6.26, 3.125, 1.6, 0.8 and 0.4 μg/ml. The tested yeast strains were previously grown in YEPD, YEPD+S, YES or YES+S agar plates at 30°C for 48 h. Micro-culture assays of large numbers of samples were analyzed as described) ([Martins et al., 2011]). Essentially early log-phase cells were grown in YEPD, YEPD+S, YES or YES+S (1.2 M sorbitol) medium at 30°C, and diluted to cell density of 4 X 10^6 cells/ml in YEPD, YEPD+S, YES or YES+S medium and aliquots of 100 μl were dispensed into each small test tube (3 ml test tube size). Then, another 100 μl of YEPD, YEPD+S, YES or YES+S with the corresponding dilution of each compound at 2X concentration (4% DMSO) was added. The final volume was 200 μl, with the cells diluted to of 2 X 10^6 cells/ml and each compound diluted to 1X final concentration, containing increasing concentrations of antifungal (0, 1, 2, 5, 10, 20, 50, 100 and 200 μg/ml) or an equivalent volume of solvent (2% DMSO). The cells were grown at 30°C in an orbital roller and turbidity was analyzed after 24 and 48 h of incubation. The MIC was determined as the minimal concentration of tested compound that produced complete cell growth inhibition and kept the medium clear. The MIC values were calculated from at least three independent experiments. Next, the first generation of isochromanones (1E-16E) was also screened in YES medium (Table 5) and exerted a weaker antifungal potency than in YEPD medium and also than the second family of isochromanones in YES medium (17E-30E) (Table 6). The strains are partly different from the previously mentioned ones (Tables 5, 6) analyzing two wild type C. albicans strains because they behaved similarly in YEPD. It is remarkable that there was no effect against either the C. albicans, the S. cerevisiae, or the S. pombe wild-type strains, except with 30E.

C. albicans wild-type [2] = tested on: C. albicans wild-type; design: species or system whole yeast cells; micro-culture broth dilution MIC in YES at 30 C, turbidity, complete growth inhibition; details: Candida albicans, read-out: MIC
Procedure: as §1

[3] = tested on: T2, S. pombe wild-type 972 h-; design: species or system whole yeast cells; micro-culture broth dilution MIC in YES at 30 C, turbidity, complete growth inhibition; details: Schizosaccharomyces pombe, read-out: MIC
T2 construct: 972 h-
Procedure: as §1

C. albicans wild-type [4] = tested on: C. albicans wild-type; design: species or system whole yeast cells; macro tube broth dilution MIC in YEPD at 30 C, visual clearness of medium; details: Candida albicans, 48 h, read-out: MIC
Procedure: (§2) Standard YEPD (Yeast Extract, Peptone, Dextrose) ([Sherman, 1990]), YEPD+S (YEPD with 1.2M sorbitol), YES (Yeast Extract, Dextrose and Supplements of Adenine, Histidine, Leucine, Uracil and Lysine) ([Alfa et al., 1993]) and YES+S (YES with 1.2 M sorbitol) ([Ribas et al., 1991]; [Ishiguro et al., 1997]), media were used for determination of MIC values of the tested compounds. A stock solution of 10 mg/ml of each tested compounds was prepared in DMSO and serial dilutions in DMSO were prepared. The final concentration of DMSO was 2% in the YEPD medium. […] The serial dilutions of compounds were dispensed into test tubes with 1 ml of YEPD or YEPD+S to make final concentrations of 200, 100, 50, 25, 12.5, 6.26, 3.125, 1.6, 0.8 and 0.4 μg/ml. The tested yeast strains were previously grown in YEPD, YEPD+S, YES or YES+S agar plates at 30°C for 48 h. For inoculation of YEPD or YEPD+S macro test tubes a suspension of tested fungus was produced with 10^5 cfu/ml (cfu - colony forming unit). 10 μl of suspension was used for inoculation of each tube. After 48 h incubation at 30°C the tubes were checked. The MIC value is the lowest concentration of the tested compound that could inhibit the fungal growth and the medium remained clear. From each tube 10 μl culture was plated on YEPD agar medium to check the contamination. The MIC tests were carried out in three parallels. The screening of the first generation of isochromanones was carried out in YEPD and YEPD+S media (1E-16E). The fungal strains analyzed are: C. albicans wild-type ATCC 26555, SC5314 and ATCC 90028, S. cerevisiae wild-type CVX12-3A and pbr1-1 mutant, and S. pombe wild-type (972h^–), pbr1-8 mutant and pbr1-6 mutant. The bold numbers in Tables 4–6 indicate the more efficient compounds. […] The weak or moderate efficacy against the C. albicans wild-type strains was observed by some substances (3E, 4Z, 5Z, 10E, 15, and 16E). The efficiency toward the S. pombe pbr1-6 mutant strain was the highest inhibitory activity, except 7E, 11E, 12 and 14E. […] As regards the other S. pombe pbr1-8 mutant strain, the antifungal activity of the tested compounds was slightly lower, but the substances with the best activity are partly identical to the best compounds mentioned with pbr1-6, (i.e., 1E, 3E, 4Z, 5Z).

C. albicans wild-type [5] = tested on: C. albicans wild-type; design: species or system whole yeast cells; macro tube broth dilution MIC in YEPD at 30 C, visual clearness of medium; details: Candida albicans, 48 h, read-out: MIC; remark: listed apart in the source
Procedure: as §2

[6] = tested on: T1, S. cerevisiae wild-type CVX12-3A; design: species or system whole yeast cells; macro tube broth dilution MIC in YEPD at 30 C, visual clearness of medium; details: Saccharomyces cerevisiae, 48 h, read-out: MIC
Procedure: as §2

C. albicans wild-type [7] = tested on: C. albicans wild-type; design: species or system whole yeast cells; macro tube broth dilution MIC in YEPD at 30 C, visual clearness of medium; details: Candida albicans, 48 h, read-out: MIC; remark: listed apart in the source
Procedure: as §2

[8] = tested on: T2, S. pombe wild-type 972 h-; design: species or system whole yeast cells; macro tube broth dilution MIC in YEPD at 30 C, visual clearness of medium; details: Schizosaccharomyces pombe, 48 h, read-out: MIC
Procedure: as §2

C. albicans wild-type [9] = tested on: C. albicans wild-type; design: species or system whole yeast cells; micro-culture broth dilution MIC in YES at 30 C, turbidity, complete growth inhibition; details: Candida albicans, read-out: MIC; remark: listed apart in the source
Procedure: as §1

O=C1OCc2ccccc2/C1=C\c1ccccc1 [1E]
MIC [1]: > 200 µg/mL | MIC (C. albicans wild-type [2]): > 200 µg/mL | MIC [3]: > 200 µg/mL | MIC (C. albicans wild-type [4]): 200 µg/mL (≈ 846 µM) | MIC (C. albicans wild-type [5]): 200 µg/mL (≈ 846 µM) | MIC [6]: 100 µg/mL (≈ 423 µM) | MIC (C. albicans wild-type [7]): 200 µg/mL (≈ 846 µM) | MIC [8]: 25 µg/mL (≈ 106 µM)

O=C1OCc2ccccc2/C1=C/c1ccccc1 [1Z]
MIC [1]: > 200 µg/mL | MIC (C. albicans wild-type [2]): > 200 µg/mL | MIC [3]: > 200 µg/mL | MIC (C. albicans wild-type [4]): > 200 µg/mL | MIC (C. albicans wild-type [5]): 200 µg/mL (≈ 846 µM) | MIC [6]: 100 µg/mL (≈ 423 µM) | MIC (C. albicans wild-type [7]): > 200 µg/mL | MIC [8]: 50 µg/mL (≈ 212 µM)

O=C1OCc2ccccc2/C1=C\c1ccc(C(=O)O)cc1 [2E]
MIC [1]: > 200 µg/mL | MIC (C. albicans wild-type [2]): > 200 µg/mL | MIC [3]: > 200 µg/mL | MIC (C. albicans wild-type [4]): 200 µg/mL (≈ 714 µM) | MIC (C. albicans wild-type [5]): 200 µg/mL (≈ 714 µM) | MIC [6]: 100 µg/mL (≈ 357 µM) | MIC (C. albicans wild-type [7]): 200 µg/mL (≈ 714 µM) | MIC [8]: 50 µg/mL (≈ 178 µM)

O=C1OCc2ccccc2/C1=C\c1cccnc1 [3E]
MIC [1]: 200 µg/mL (≈ 843 µM) | MIC (C. albicans wild-type [2]): > 200 µg/mL | MIC [3]: 200 µg/mL (≈ 843 µM) | MIC (C. albicans wild-type [4]): 100 µg/mL (≈ 421 µM) | MIC (C. albicans wild-type [5]): 50 µg/mL (≈ 211 µM) | MIC [6]: 50 µg/mL (≈ 211 µM) | MIC (C. albicans wild-type [7]): 100 µg/mL (≈ 421 µM) | MIC [8]: 25 µg/mL (≈ 105 µM)

Cn1cccc1/C=C1/C(=O)OCc2ccccc21 [4E]
MIC [1]: > 200 µg/mL | MIC (C. albicans wild-type [2]): > 200 µg/mL | MIC [3]: > 200 µg/mL | MIC (C. albicans wild-type [4]): 200 µg/mL (≈ 836 µM) | MIC (C. albicans wild-type [5]): 200 µg/mL (≈ 836 µM) | MIC [6]: 100 µg/mL (≈ 418 µM) | MIC (C. albicans wild-type [7]): 200 µg/mL (≈ 836 µM) | MIC [8]: 50 µg/mL (≈ 209 µM)

Cn1cccc1/C=C1\C(=O)OCc2ccccc21 [4Z]
MIC [1]: > 200 µg/mL | MIC (C. albicans wild-type [2]): > 200 µg/mL | MIC [3]: > 200 µg/mL | MIC (C. albicans wild-type [4]): 50 µg/mL (≈ 209 µM) | MIC (C. albicans wild-type [5]): 12.5 µg/mL (≈ 52.2 µM) | MIC [6]: 12.5 µg/mL (≈ 52.2 µM) | MIC (C. albicans wild-type [7]): 25 µg/mL (≈ 104 µM) | MIC [8]: 25 µg/mL (≈ 104 µM)

O=C1OCc2ccccc2/C1=C/c1ccc[nH]1 [5Z]
MIC [1]: > 200 µg/mL | MIC (C. albicans wild-type [2]): > 200 µg/mL | MIC [3]: > 200 µg/mL | MIC (C. albicans wild-type [4]): 100 µg/mL (≈ 444 µM) | MIC (C. albicans wild-type [5]): 200 µg/mL (≈ 888 µM) | MIC [6]: 100 µg/mL (≈ 444 µM) | MIC (C. albicans wild-type [7]): 100 µg/mL (≈ 444 µM) | MIC [8]: 25 µg/mL (≈ 111 µM)

O=C1OCc2ccccc2/C1=C\c1ccccc1Cl [8E]
MIC [1]: > 200 µg/mL | MIC (C. albicans wild-type [2]): > 200 µg/mL | MIC [3]: > 200 µg/mL | MIC (C. albicans wild-type [4]): > 200 µg/mL | MIC (C. albicans wild-type [5]): 200 µg/mL (≈ 739 µM) | MIC [6]: 100 µg/mL (≈ 369 µM) | MIC (C. albicans wild-type [7]): > 200 µg/mL | MIC [8]: 50 µg/mL (≈ 185 µM)

COc1cccc(/C=C2/C(=O)OCc3ccccc32)c1OC [9E]
MIC [1]: > 200 µg/mL | MIC (C. albicans wild-type [2]): > 200 µg/mL | MIC [3]: > 200 µg/mL | MIC (C. albicans wild-type [4]): 100 µg/mL (≈ 337 µM) | MIC (C. albicans wild-type [5]): 100 µg/mL (≈ 337 µM) | MIC [6]: 100 µg/mL (≈ 337 µM) | MIC (C. albicans wild-type [7]): 100 µg/mL (≈ 337 µM) | MIC [8]: 50 µg/mL (≈ 169 µM)

O=C1OCc2ccccc2/C1=C\c1ccccc1[N+](=O)[O-] [11E]
MIC [1]: > 200 µg/mL | MIC (C. albicans wild-type [2]): > 200 µg/mL | MIC [3]: > 200 µg/mL | MIC (C. albicans wild-type [4]): > 200 µg/mL | MIC (C. albicans wild-type [5]): > 200 µg/mL | MIC [6]: 200 µg/mL (≈ 711 µM) | MIC (C. albicans wild-type [7]): > 200 µg/mL | MIC [8]: 100 µg/mL (≈ 356 µM)

O=C1OCc2ccccc2/C1=C\c1ccc([N+](=O)[O-])cc1 [17E, E-4-[(4′-Nitrophenyl)Methylene]-3-Isochromanone]
MIC [1]: 200 µg/mL (≈ 711 µM) | MIC (C. albicans wild-type [2]): > 200 µg/mL | MIC [3]: > 200 µg/mL | MIC (C. albicans wild-type [9]): > 200 µg/mL

Source: PMC6689975, “Novel Cell Wall Antifungals Reveal a Special Synergistic Activity in pbr1 Mutants Resistant to the Glucan Synthesis Antifungals Papulacandins and Echinocandins” (Frontiers in Microbiology, 2019)
